Series [1] can be described thus: Cytotoxicity against human MT2 cells. The series is classed as cell-based.
The test system of series [2] is Human immunodeficiency virus 1. Nature of the series: Antiviral activity against HIV1 3B in MT2 cells. As to conditions: Human immunodeficiency virus 1, 3B. The series is classed as functional, organism-based.

From ChEMBL document CHEMBL1140817, “Synthesis and anti-HIV activity of 2'-fluorine modified nucleoside phosphonates: analogs of GS-9148” (Bioorg Med Chem Lett, 2008) come the findings set out here.

As for `C[C@H](Cn1cnc2c(N)ncnc21)OCP(=O)(O)O` [TENOFOVIR ANHYDROUS], the CC50 in series [1] was over 1000 µM. Further, in series [2], the EC50 was determined as 3.6 µM. Take `Nc1nc2c(ncn2[C@@H]2O[C@H](OCP(=O)(O)O)C=C2F)c(=O)[nH]1`: in series [1], the CC50 was 700 µM. In series [2], this compound came in with an EC50 of 17.4 µM. The corresponding values for `Nc1ncnc2c1ncn2[C@@H]1O[C@H](OCP(=O)(O)O)C=C1F` [GS-9148] are over 1000 µM and 12.3 µM. In series [2], `Nc1nc(N)c2ncn([C@@H]3O[C@H](OCP(=O)(O)O)C=C3F)c2n1` displayed an EC50 of over 300 µM. Consider `Nc1ncnc2c1ncn2[C@@H]1O[C@H](OCP(=O)(O)O)C[C@@H]1F`, for which the half-maximal cytotoxic concentration (CC50) in series [1] was over 1000 µM. Moreover, in series [2], the response was half-maximal at 283 µM (EC50).

Compound `O=c1[nH]cnc2c1ncn2[C@@H]1O[C@H](OCP(=O)(O)O)C=C1F` had an EC50 in series [2] of over 300 µM.

The term CC50 denotes the concentration giving 50% cytotoxicity. A high value points to lower toxicity to the cells. Usually EC50 stands for the midpoint of the concentration-response curve.
